# Experimental data taken from patent US11034839B2, “Compounds, linked with haptens, for the detection of senescent cells” (THE UNIVERSITY OF MANCHESTER, priority 2016, dated 2021).
# Entries after “also recorded” stand apart in the source; their conditions may differ.
# What was measured:
# Type in all cases: cell-based
# [1] = tested on: senescent cells in induced Saos2-p21 cells and irradiated human diploid lung fibroblasts (DLFs); experiment: Streptavidin-HRP/DAB labeling of cell spreads; conditions: cell spreads on cover slips, panels 6ai and 6bi
# Description: In inventive example 3, the derivative […] was used to detect senescent cells in cell spreads using streptavidin-horse radish peroxidase (HRP)/DAB labeling.
# Induced and non-induced Saos2-p21^WAF1/Cip1 […] cells as well as human lung fibroblasts (DLFs) non- and y-irradiated were grown on cover slips and collected before and after the mentioned respective treatments for induction of senescence. Cover slips were treated as follows: • a. Fixation in ice-cold ethanol or methanol for 4 min. • b. Blocking of endogenous peroxidase activity with 3% H2O2 for 10 min. • c. Quick wash in 50% (v/v) ethanol. • d. Application of LG13 dye, diluted in ethanol and filtered, on cells for 10 min. • e. Quick wash in 50% (v/v) ethanol. • f. Transfer and wash in TBS or PBS solution. • g. Incubation in streptavidin-HRP (horse radish peroxidase) conjugated (dilution 1/200), for ½ hr at room temperature. • h. Quick wash in TBS or PBS solution. • i. Staining with 3,3′-Diaminobenzidine (DAB) solution (dilution 1/300 in TBS or PBS) for 1 min at room temperature. • j. Counterstain with Nuclear Fast Red, followed by mounting with glycerol and sealing with a cover slip. • k. Microscopy observation.
# lipofuscin = experiment: Immunofluorescence staining / lipofuscin autofluorescence control; conditions: fluorescence microscopy, FIG. 9
# Description: In inventive example 6 the derivative LG13 was used to detect lipofuscin rich cells in cell spreads from cell culture by immunofluorescence staining.
# Immunofluorescence staining protocol cellsor ounted on coverslips • 1. Wash ×1 in TBS for 5 min at RT. • 2. Wash ×1 in EtOH 50% for 5 min at RT. • 3. Wash ×1 EtOH 70% for 5 min at RT. • 4. Incubate with the compound (LG13) at RT. A drop of freshly prepared compound (LG13) is placed on a clean slide with the use of a syringe that carrying a 2 mm filter (see also FIG. 1 from Evangelou & Gorgoulis, 2016). Then the cover-slip with the cells is turned down (using thin edged forceps) on the slide and attached on the dye drop in a way that the material faces down the drop on the slide (All incubations were performed in chambers (cover slips) and coplin jars (glass slides) to avoid exsiccation of the material), (see also FIG. 1 from Evangelou & Gorgoulis, 2016). • 5. The staining reaction is monitored under the light microscope until detection of the signal (average time 5-8 min). • 6. Wash ×2 in EtOH 50%. • 7. Repeat washing ×2 in fresh EtOH 50%. • 8. Wash ×2 in TBS for 30 sec and ×1 for 5 min at RT. • 9. Incubate with 0.5% Triton X/TBS for 3 min at RT. • 10. Wash ×1 in TBS for 5 min at RT. • 11. […] Observe under the fluorescence microscope
# senescent cells = experiment: Flow cytometry analysis for detection of senescent cells in cell culture; conditions: HIC assay adapted to flow cytometry, FIG. 10
# Description: In inventive example 7 the derivative LG13 was used to detect lipofuscin rich cells in cell aspirations or cell cultures by flow cytometry analysis.
# • 1. Cells harvested from culture are fixed in EtOH 70% at 4° C. • 2. Centrifuge at 1200 rpm for 5 min at RT. • 3. Wash ×1 in 5 ml PBS at RT. • 4. Centrifuge at 1200 rpm for 5 min at RT. • 5. Incubate in 0.1% Triton X/PBS for 15 min at RT. • 6. Centrifuge at 1200 rpm for 5 min at RT. • 7. Wash ×1 EtOH 50% for 5 min at RT • 8. Centrifuge at 1200 rpm for 5 min at RT. • 9. Wash ×1 EtOH 70% for 5 min at RT. • 10. Centrifuge at 1200 rpm for 5 min at RT. • 11. Cover cell pellet with compound LG13 and incubate for 8 min at RT. • 12. Centrifuge at 1200 rpm for 5 min at RT. • 13. Wash with EtOH 50% and centrifuge at 1200 rpm for 5 min at RT, repeat ×3. • 14. Wash ×1 in PBS. • 15. Centrifuge at 1200 rpm for 5 min at RT. • 16. Incubate with the primary anti-biotin antibody diluted 1:400 in PBS ([Hyb-8] ab201341, Abcam) for 60 min at 37° C. • 17. Wash ×1 with PBS. • 18. Centrifuge at 1200 rpm for 5 min at RT. • 19. Incubate with secondary antibody, goat anti-mouse 568 Alexa Fluor conjugated, diluted 1:100 in PBS [Thermo Fisher Scientific (Cat no: A-11004)] for 20-30 min in dark and on ice. • 20. Wash ×1 with PBS. • 21. Centrifuge at 1200 rpm for 5 min at RT.
smiles,measurement,setting,value
"CC1(COC(=O)CCCC[C@H]2SC[C@H]3NC(=O)N[C@H]32)Nc2cccc3c(/N=N/c4ccc(/N=N/c5ccccc5)c5ccccc45)ccc(c23)N1 (stereo partly drawn) [LG13, (2-methyl-6-((E)-(4-((E)-phenyldiazenyl)naphthalen-1-yl)diazenyl)-2,3-dihydro-1H-perimidin-2-yl)methyl 5-((3aR,4R,6aS)-2-oxohexahydro-1H-thieno[3,4-d]imidazol-4-yl)pentanoate]",colour of senescent cells after streptavidin-HRP/DAB detection,[1],clear dark-brown color
same,effect of staining on lipofuscin autofluorescence,lipofuscin,quenched; also recorded: “masks” the autofluorescence ability of lipofuscin
same,detection of senescent cells by flow cytometry,senescent cells,detects robustly senescent cells
